Results as given in patent publication US10760110B2, “Antibiotic testing and screening system” (priority 2017, dated 2020).
Like-named read-outs stand apart in the source and are kept apart here.

Test system: K. pneumoniae NVT1001 strains with ESBL or AmpC β-lactamase plasmids
Experiment: Etest MIC of β-lactams, OmpK35/36 loss, ΔramR and/or extended-spectrum β-lactamase and AmpC β-lactamase (Table 8)
Assay type: cell-based, Klebsiella pneumoniae
Details: Klebsiella pneumoniae
Protocol: DNA fragments of the resistance genes along with their flanking regions were amplified from clinical plasmids via PCR with specific primer pairs. The resulting PCR fragments were digested and then cloned into the plasmid pACYC177 or pACYC184. The resulting plasmids were then transformed into K. pneumoniae strain NVT1001 via electroporation. The recombinant bacteria were plated onto LB agar plates containing kanamycin (50 mg/L) or chloramphenicol (50 mg/L), and the presence of the cloned gene was confirmed via PCR and DNA sequencing.
The MICs of antibiotics were determined using the Etest (Biodisk AB, Sweden) according to the manufacturer's instructions. The MICs from the Etest, which fall between standard two-fold dilutions, were rounded up to the next highest two-fold value. The MICs of ceftazidime and cefotaxime against K. pneumoniae NVT1001 harbouring the pACYC177 plasmid with blaOXA-48 were further determined using a broth microdilution test according to the recommendations of the CLSI,^25 and the results were interpreted according to the breakpoints established by the CLSI in 2017.^25 Meanwhile, due to the lack of CLSI breakpoints in 2016 and 2017, the results for cephalothin were interpreted according to the breakpoints established by the CLSI in 2015,^26 and the results for moxifloxacin were interpreted according to the breakpoints established by the EUCAST in 2017.^27

[1] = CMY-2 on pACYC177, WT (NVT1001), read-out: MIC
[2] = CMY-2 on pACYC177, Δ35 (ΔompK35 mutant)
[3] = CMY-2 on pACYC177, Δ35/36 (ΔompK35/36 mutant)
[4] = CMY-2 on pACYC177, Δ36 (ΔompK36 mutant)
[5] = CMY-2 on pACYC177, ΔramR mutant
[6] = CMY-2 on pACYC177, ΔramRΔ35 (ΔramRΔompK35 mutant)
[7] = CMY-2 on pACYC177, ΔramRΔ35/36 (ΔramRΔompK35/36 mutant)
[8] = CMY-2 on pACYC177, ΔramRΔ36 (ΔramRΔompK36 mutant)
[9] = CTX-M-14 on pACYC177, WT (NVT1001), read-out: MIC
[10] = CTX-M-14 on pACYC177, Δ35 (ΔompK35 mutant)
[11] = CTX-M-14 on pACYC177, Δ35/36 (ΔompK35/36 mutant)
[12] = CTX-M-14 on pACYC177, Δ36 (ΔompK36 mutant)
[13] = CTX-M-14 on pACYC177, ΔramR mutant
[14] = CTX-M-14 on pACYC177, ΔramRΔ35 (ΔramRΔompK35 mutant)
[15] = CTX-M-14 on pACYC177, ΔramRΔ35/36 (ΔramRΔompK35/36 mutant)
[16] = CTX-M-14 on pACYC177, ΔramRΔ36 (ΔramRΔompK36 mutant)
[17] = CTX-M-15 on pACYC177, WT (NVT1001), read-out: MIC
[18] = CTX-M-15 on pACYC177, Δ35 (ΔompK35 mutant)
[19] = CTX-M-15 on pACYC177, Δ35/36 (ΔompK35/36 mutant)
[20] = CTX-M-15 on pACYC177, Δ36 (ΔompK36 mutant)
[21] = CTX-M-15 on pACYC177, ΔramR mutant
[22] = CTX-M-15 on pACYC177, ΔramRΔ35 (ΔramRΔompK35 mutant)
[23] = CTX-M-15 on pACYC177, ΔramRΔ35/36 (ΔramRΔompK35/36 mutant)
[24] = CTX-M-15 on pACYC177, ΔramRΔ36 (ΔramRΔompK36 mutant)
[25] = DHA-1-AmpR on pACYC177, WT (NVT1001), read-out: MIC
[26] = DHA-1-AmpR on pACYC177, Δ35 (ΔompK35 mutant)
[27] = DHA-1-AmpR on pACYC177, Δ35/36 (ΔompK35/36 mutant)
[28] = DHA-1-AmpR on pACYC177, Δ36 (ΔompK36 mutant)
[29] = DHA-1-AmpR on pACYC177, ΔramR mutant
[30] = DHA-1-AmpR on pACYC177, ΔramRΔ35 (ΔramRΔompK35 mutant)
[31] = DHA-1-AmpR on pACYC177, ΔramRΔ35/36 (ΔramRΔompK35/36 mutant)
[32] = DHA-1-AmpR on pACYC177, ΔramRΔ36 (ΔramRΔompK36 mutant)
[33] = SHV-12 on pACYC177, WT (NVT1001), read-out: MIC
[34] = SHV-12 on pACYC177, Δ35 (ΔompK35 mutant)
[35] = SHV-12 on pACYC177, Δ35/36 (ΔompK35/36 mutant)
[36] = SHV-12 on pACYC177, Δ36 (ΔompK36 mutant)
[37] = SHV-12 on pACYC177, ΔramR mutant
[38] = SHV-12 on pACYC177, ΔramRΔ35 (ΔramRΔompK35 mutant)
[39] = SHV-12 on pACYC177, ΔramRΔ35/36 (ΔramRΔompK35/36 mutant)
[40] = SHV-12 on pACYC177, ΔramRΔ36 (ΔramRΔompK36 mutant)
[41] = no supplemental plasmid, WT (NVT1001), read-out: MIC
[42] = no supplemental plasmid, Δ35 (ΔompK35 mutant)
[43] = no supplemental plasmid, Δ35/36 (ΔompK35/36 mutant)
[44] = no supplemental plasmid, Δ36 (ΔompK36 mutant)
[45] = no supplemental plasmid, ΔramR mutant
[46] = no supplemental plasmid, ΔramRΔ35 (ΔramRΔompK35 mutant)
[47] = no supplemental plasmid, ΔramRΔ35/36 (ΔramRΔompK35/36 mutant)
[48] = no supplemental plasmid, ΔramRΔ36 (ΔramRΔompK36 mutant)

`C[C@H]1[C@H](NC(=O)/C(=N\OC(C)(C)C(=O)O)c2csc(N)n2)C(=O)N1S(=O)(=O)O` [Aztreonam] was tested, and the MIC [1] was 64 µg/mL, the MIC [2] was 128 µg/mL and the MIC [3] was 256 µg/mL. The MIC [4] was 64 µg/mL, the MIC [5] was 64 µg/mL and the MIC [6] was 64 µg/mL. For the same molecule, the MIC [7] was 64 µg/mL, the MIC [8] was 64 µg/mL and the MIC [9] was 2 µg/mL. It also gave an MIC [10] of 16 µg/mL, an MIC [11] of 32 µg/mL and an MIC [12] of 2 µg/mL. For the same molecule, the MIC [13] was 16 µg/mL, the MIC [14] was 16 µg/mL and the MIC [15] was 32 µg/mL. For the same molecule, the MIC [16] was 16 µg/mL, the MIC [17] was 256 µg/mL and the MIC [18] was > 256 µg/mL. For the same molecule, the MIC [19] was > 256 µg/mL, the MIC [20] was > 256 µg/mL and the MIC [21] was > 256 µg/mL. For the same molecule, the MIC [22] was > 256 µg/mL, the MIC [23] was > 256 µg/mL and the MIC [24] was > 256 µg/mL. It also gave an MIC [25] of 1 µg/mL, an MIC [26] of 8 µg/mL and an MIC [27] of 16 µg/mL. The MIC [28] was 1 µg/mL, the MIC [29] was 4 µg/mL and the MIC [30] was 4 µg/mL. The MIC [31] was 8 µg/mL, the MIC [32] was 8 µg/mL and the MIC [33] was 128 µg/mL. For the same molecule, the MIC [34] was > 256 µg/mL, the MIC [35] was > 256 µg/mL and the MIC [36] was 128 µg/mL. For the same molecule, the MIC [37] was > 256 µg/mL, the MIC [38] was > 256 µg/mL and the MIC [39] was > 256 µg/mL. For the same molecule, the MIC [40] was > 256 µg/mL, the MIC [41] was 0.03 µg/mL and the MIC [42] was 0.25 µg/mL. The MIC [43] was 0.5 µg/mL, the MIC [44] was 0.06 µg/mL and the MIC [45] was 0.5 µg/mL. The MIC [46] was 0.5 µg/mL, the MIC [47] was 1 µg/mL and the MIC [48] was 1 µg/mL.
For `CO/N=C(\C(=O)N[C@@H]1C(=O)N2C(C(=O)O)=C(COC(C)=O)CS[C@H]12)c1csc(N)n1` [Cefotaxime], the MIC [1] was 64 µg/mL, the MIC [2] was 128 µg/mL and the MIC [3] was > 256 µg/mL. The MIC [4] was > 256 µg/mL, the MIC [5] was 128 µg/mL and the MIC [6] was 128 µg/mL. The MIC [7] was > 256 µg/mL, the MIC [8] was > 256 µg/mL and the MIC [9] was 64 µg/mL. The MIC [10] was 128 µg/mL, the MIC [11] was > 256 µg/mL and the MIC [12] was > 256 µg/mL. For the same molecule, the MIC [13] was 128 µg/mL, the MIC [14] was 128 µg/mL and the MIC [15] was > 256 µg/mL. The MIC [16] was > 256 µg/mL, the MIC [17] was > 256 µg/mL and the MIC [18] was > 256 µg/mL. For the same molecule, the MIC [19] was > 256 µg/mL, the MIC [20] was > 256 µg/mL and the MIC [21] was > 256 µg/mL. For the same molecule, the MIC [22] was > 256 µg/mL, the MIC [23] was > 256 µg/mL and the MIC [24] was > 256 µg/mL. The MIC [25] was 8 µg/mL, the MIC [26] was 16 µg/mL and the MIC [27] was 64 µg/mL. For the same molecule, the MIC [28] was 16 µg/mL, the MIC [29] was 16 µg/mL and the MIC [30] was 16 µg/mL. For the same molecule, the MIC [31] was 64 µg/mL, the MIC [32] was 64 µg/mL and the MIC [33] was 32 µg/mL. The MIC [34] was 32 µg/mL, the MIC [35] was > 256 µg/mL and the MIC [36] was 32 µg/mL. It also gave an MIC [37] of 64 µg/mL, an MIC [38] of 64 µg/mL and an MIC [39] of 256 µg/mL. For the same molecule, the MIC [40] was 256 µg/mL, the MIC [41] was 0.06 µg/mL and the MIC [42] was 0.125 µg/mL. The MIC [43] was 2 µg/mL, the MIC [44] was 0.25 µg/mL and the MIC [45] was 1 µg/mL. For the same molecule, the MIC [46] was 1 µg/mL, the MIC [47] was 4 µg/mL and the MIC [48] was 4 µg/mL.
